Data: ChEMBL document CHEMBL1201862, “PubChem BioAssay data set” (2004)
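Five compound concentrations were applied to cells in 96-well plates for 48 hours; endpoints were derived by simple linear interpolation of the resulting dose-response curve. GI50 = concentration required for 50% inhibition of growth.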 Active and inactive are the calls of the source. Cut-off read from the data, not from the text of the source: active = GI50 up to about 1.1 µM and inactive = higher.

Legend:
Assay in all cases: inhibition of tumour cell growth, NCI panel, 48 h
786-0 = test system: 786-0
A498 = test system: A498
A549 = test system: A549
ACHN = test system: ACHN
BT-549 = test system: BT-549
CCRF-CEM = test system: CCRF-CEM
COLO 205 = test system: COLO 205
DU-145 = test system: DU-145
EKVX = test system: EKVX
HCT-116 = test system: HCT-116
HCT-15 = test system: HCT-15
HL-60 = test system: HL-60
HOP-62 = test system: HOP-62
HOP-92 = test system: HOP-92
HT-29 = test system: HT-29
Hs-578T = test system: Hs-578T
IGROV-1 = test system: IGROV-1
K562 = test system: K562
KM12 = test system: KM12
LOX IMVI = test system: LOX IMVI
M14 = test system: M14
MCF7 = test system: MCF7
MDA-MB-231 = test system: MDA-MB-231
MDA-MB-435 = test system: MDA-MB-435
MDA-N = test system: MDA-N
MOLT-4 = test system: MOLT-4
Malme-3M = test system: Malme-3M
NCI-H226 = test system: NCI-H226
NCI-H23 = test system: NCI-H23
NCI-H460 = test system: NCI-H460
NCI/ADR-RES = test system: NCI/ADR-RES
OVCAR-3 = test system: OVCAR-3
OVCAR-4 = test system: OVCAR-4
OVCAR-5 = test system: OVCAR-5
PC-3 = test system: PC-3
RPMI-8226 = test system: RPMI-8226
RXF 393 = test system: RXF 393
SF-268 = test system: SF-268
SF-539 = test system: SF-539
SK-MEL-28 = test system: SK-MEL-28
SK-MEL-2 = test system: SK-MEL-2
SK-MEL-5 = test system: SK-MEL-5
SK-OV-3 = test system: SK-OV-3
SN12C = test system: SN12C
SNB-19 = test system: SNB-19
SNB-75 = test system: SNB-75
SR = test system: SR
SW-620 = test system: SW-620
T47D = test system: T47D
TK-10 = test system: TK-10
U-251 = test system: U-251
UACC-257 = test system: UACC-257
UACC-62 = test system: UACC-62
UO-31 = test system: UO-31
CAKI-1 = test system: CAKI-1
HCC 2998 = test system: HCC 2998
NCI-H522 = test system: NCI-H522
OVCAR-8 = test system: OVCAR-8
SF-295 = test system: SF-295

Measured: GI50

Nc1nc(Nc2ccccc2)sc1C(=O)c1ccco1
inactive: 786-0 12.7 µM | A498 17.8 µM | A549 17.1 µM | ACHN 19.2 µM | BT-549 23.2 µM | CCRF-CEM 3.62 µM | COLO 205 13.2 µM | DU-145 14.7 µM | EKVX 15.3 µM | HCT-116 12.8 µM | HL-60 14.1 µM | HOP-62 27.5 µM | HOP-92 35.6 µM | HT-29 14.4 µM | Hs-578T 13.3 µM | IGROV-1 15.6 µM | K562 8.55 µM | KM12 11 µM | LOX IMVI 15.9 µM | M14 20.9 µM | MCF7 7.74 µM | MDA-MB-231 34.7 µM | MDA-MB-435 16.4 µM | MDA-N 17.2 µM | MOLT-4 13 µM | Malme-3M 26.9 µM | NCI-H226 21.3 µM | NCI-H23 14.6 µM | NCI-H460 12.8 µM | NCI/ADR-RES 23.9 µM | OVCAR-3 5.69 µM | OVCAR-4 19.9 µM | OVCAR-5 34 µM | PC-3 22.6 µM | RPMI-8226 16.1 µM | RXF 393 14.2 µM | SF-268 26.7 µM | SF-539 15.7 µM | SK-MEL-28 32.8 µM | SK-MEL-2 15.2 µM | SK-MEL-5 11.1 µM | SK-OV-3 28.6 µM | SN12C 17.7 µM | SNB-19 19.9 µM | SNB-75 15.1 µM | SR 5.97 µM | SW-620 21.2 µM | T47D 14.9 µM | TK-10 14.2 µM | U-251 22.7 µM | UACC-257 30.8 µM | UACC-62 20.8 µM | UO-31 12.1 µM
12.2 µM: HCT-15

C[N+](C)([O-])C12CC3CC(CC(C3)C1)C2
inactive: 786-0 25.5 µM | A498 22 µM | A549 25.8 µM | ACHN 26.4 µM | BT-549 34 µM | CAKI-1 > 100 µM | CCRF-CEM 34.1 µM | COLO 205 27 µM | DU-145 37.2 µM | EKVX 21.4 µM | HCC 2998 29.4 µM | HCT-116 23.9 µM | HL-60 44.6 µM | HOP-62 24 µM | HT-29 35.6 µM | Hs-578T 55.6 µM | IGROV-1 25.3 µM | K562 29.4 µM | KM12 26.8 µM | LOX IMVI 27.2 µM | M14 25.7 µM | MCF7 33.1 µM | MDA-MB-231 > 100 µM | MDA-MB-435 28.4 µM | MDA-N 31.8 µM | MOLT-4 29.3 µM | Malme-3M 54.3 µM | NCI-H226 55.2 µM | NCI-H23 28.2 µM | NCI-H460 43.7 µM | NCI-H522 27.2 µM | NCI/ADR-RES 31.6 µM | OVCAR-3 16.4 µM | OVCAR-4 33.1 µM | OVCAR-5 39.6 µM | OVCAR-8 40.1 µM | PC-3 22.4 µM | RPMI-8226 29.9 µM | RXF 393 37.5 µM | SF-268 38.3 µM | SF-295 30 µM | SF-539 23.4 µM | SK-MEL-28 32.4 µM | SK-MEL-2 22.6 µM | SK-MEL-5 27.2 µM | SK-OV-3 61.9 µM | SN12C 33.7 µM | SNB-19 46.3 µM | SNB-75 28.2 µM | SR 41.3 µM | SW-620 41.8 µM | T47D 26.9 µM | TK-10 20.9 µM | U-251 37.4 µM | UACC-257 39.2 µM | UACC-62 20.1 µM | UO-31 13.9 µM
30.6 µM: HCT-15

CCn1c(=O)c2c3ccc(OC)cc3[nH]c2c2ccc(OC)cc21
active: 786-0 0.0426 µM
inactive: A498 67.6 µM | A549 59.7 µM | ACHN 55.5 µM | BT-549 79.4 µM | CAKI-1 55.2 µM | CCRF-CEM 29.2 µM | COLO 205 39.4 µM | DU-145 43.9 µM | EKVX 57.8 µM | HCC 2998 21.2 µM | HCT-116 30.2 µM | HOP-62 37.5 µM | HOP-92 > 100 µM | HT-29 38.3 µM | Hs-578T 40.7 µM | IGROV-1 > 100 µM | K562 25.7 µM | KM12 8.18 µM | M14 36.1 µM | MCF7 50.1 µM | MDA-MB-231 57 µM | MDA-MB-435 > 100 µM | MDA-N 62.8 µM | MOLT-4 22.6 µM | Malme-3M 61 µM | NCI-H226 > 100 µM | NCI-H23 > 100 µM | NCI-H522 56.1 µM | NCI/ADR-RES 32.9 µM | OVCAR-3 37.5 µM | OVCAR-4 54.1 µM | OVCAR-5 > 100 µM | OVCAR-8 73.3 µM | PC-3 39.2 µM | RXF 393 29.3 µM | SF-268 62.2 µM | SF-295 67.1 µM | SF-539 52.5 µM | SK-MEL-28 63.1 µM | SK-MEL-5 37.2 µM | SK-OV-3 80.7 µM | SN12C > 100 µM | SNB-19 > 100 µM | SNB-75 19.8 µM | SR 70.5 µM | SW-620 57.3 µM | T47D 24.6 µM | TK-10 > 100 µM | U-251 > 100 µM | UACC-257 71.3 µM | UACC-62 63.2 µM | UO-31 47.9 µM
41.2 µM: HCT-15
